The assay deals with Bcl-2-like protein 1 (Homo sapiens) (UniProt Q07817). Nature of the assay: Bim-Bcl-XL interaction inhibitors, potency, dose response, biochemical, multiplexed, bead flow cytometry, human Bcl-XL (AID 1322). On inhibition: test concentration not given here. The settings on record: Bead-based flow cytometry, Bim peptide-Bcl-XL binding, MCF; for inhibition: active compounds read high.

Active and inactive are the calls of the source. How the calls were made is not given here.

Bcl-2-like protein 1 (Homo sapiens), sequence (Q07817 whole entry, looked up): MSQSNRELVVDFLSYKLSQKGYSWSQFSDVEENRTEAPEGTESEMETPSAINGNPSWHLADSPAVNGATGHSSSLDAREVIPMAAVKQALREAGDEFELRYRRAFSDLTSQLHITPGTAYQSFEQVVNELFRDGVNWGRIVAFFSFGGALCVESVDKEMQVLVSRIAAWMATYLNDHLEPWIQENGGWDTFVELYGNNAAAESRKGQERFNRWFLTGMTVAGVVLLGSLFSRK

Regarding `Cc1ccc(/C=C2/NC(=O)N(Cc3ccccc3)C2=O)o1`, the result was inactive.

As to `CCN(CC)c1ccc(NC(=O)COc2ccccc2C#N)cc1S(=O)(=O)Nc1ccccc1OC`, the inhibition entry was “inactive”.

For the molecule `CCN1C(=O)/C(=C\C=C2/C=CC=CN2CC)SC1=S`, the inhibition result was “inactive”.

`COC(=O)C1C2c3ccccc3OC1(C)N=c1s/c(=C/c3cnn(C)c3C)c(=O)n12` (stereo not given): the inhibition entry was “inactive”.

With `CCOC(=O)c1c(NC(=O)c2ccccc2N(C)S(=O)(=O)c2ccccc2)sc2c1CCCC2`, the inhibition result was “inactive”.

In the case of `CCOc1c(Cl)cc(CNc2ccc(N3CCCC3)cc2)cc1OC`, the inhibition entry is “inactive”.

Take `COc1ccc(OCCNC(=O)c2ccccc2OCC(=O)N2CCCCC2)cc1`: the inhibition entry is “inactive”.

Regarding `Cc1noc(C)c1COc1ccc(C(=O)Nc2cccnc2)cc1`, the inhibition result was “inactive”.

Take `CN(Cc1ccccc1)c1nc2c(c(=O)[nH]c(=O)n2C)n1C`: the inhibition result was “inactive”.

Regarding `COc1cc(N2CCOCC2)ccc1C=C1C(=O)NC(=O)NC1=O`, the inhibition result was “inactive”.

Consider `S=C(Nc1ccccc1)N1CCn2cccc2C1c1cccnc1` (stereo not given), for which the inhibition result was “inactive”.

Regarding `Cc1ccc(CNc2ccc3c(c2)OCO3)c(C)c1`, the inhibition entry was “inactive”.

Turning to `O=C(NC1=C(NC2CCS(=O)(=O)C2)C(=O)c2ccccc2C1=O)c1ccccc1` (stereo not given), the inhibition entry is “inactive”.

For `Nc1ccc(Nc2nc(-c3ccncc3)cs2)cc1`, the inhibition result was “inactive”.

For the molecule `CC(C)CN1C(=O)/C(=C/c2ccco2)NC1=S`, the inhibition entry was “inactive”.

Turning to `COc1ccc(/C=C(/C(=O)c2cccs2)N2C=CC=CC2=C(C#N)C#N)cc1`, the inhibition entry is “inactive”.

`NC(=O)c1c(NC(=O)C2CCCO2)sc2c1CCCC2` (stereo not given): the inhibition entry was “inactive”.

Turning to `Cc1cc(Cl)c(S(=O)(=O)NCC2CCCO2)cc1OCC(N)=O` (stereo not given), the inhibition entry is “inactive”.

On to `O=C(Nc1ccccc1)c1ccc2nc(-c3ccco3)c(-c3ccco3)nc2c1`, for which the inhibition entry was “inactive”.

Regarding `Cc1ccc(-c2cc(C(=O)Nc3ccccc3C)c3ccccc3n2)o1`, the inhibition entry is “inactive”.

With `CCC(=O)N(CC)C1=C(O)c2ccccc2C(=O)C1=O`, the inhibition entry is “inactive”.

In the case of `COc1cc(CNc2ccc3[nH]c(=O)[nH]c3c2)cc(Br)c1OCC(=O)NC(C)(C)C`, the inhibition entry is “inactive”.

With `CC(=O)NC1=C(NC2CCS(=O)(=O)C2)C(=O)c2ccccc2C1=O` (stereo not given), the inhibition result was “inactive”.

In the case of `CCN(CC)c1ccc(NC(=O)c2ccccc2Br)cc1S(=O)(=O)Nc1ccccc1OC`, the inhibition entry was “inactive”.

For `O=C(NCc1ccccn1)c1ccc2nc(-c3ccco3)c(-c3ccco3)nc2c1`, the inhibition entry is “inactive”.

Take `CCOC(=O)c1nc(Nc2ccc(Nc3ccccc3)cc2)c2ccccc2n1`: the inhibition result is “inactive”.

As for `COc1ccc(NC(=O)/C(C#N)=C/c2c(C)nn(-c3ccc(F)cc3)c2Cl)cc1Cl`, the inhibition result is “inactive”.

With `CCOC(=O)CSc1nnc(-c2cccc(Cl)c2)n1CC`, the inhibition result was “inactive”.

Turning to `COc1cc(NC(=O)c2ccc3c(c2)OCO3)ccc1NC(=O)c1ccco1`, the inhibition entry is “inactive”.

Take `O=C(CSc1nnc(Cc2ccccc2)o1)NCc1ccco1`: the inhibition entry is “inactive”.

For the origin of these results see PubChem BioAssay AID1322 (NMMLSC, 2008).
